Reference: patent publication US8183262B2, “Pyridine derivatives as mGluR2 antagonists” (Hoffmann-La Roche Inc., priority 2007, dated 2012)

melting point | SMILES
258 °C | Cc1cc(-c2ccc(C(F)(F)F)cc2)cc(-c2nccc(-c3ccc(N)nc3)n2)n1 [Example 241, 5-{2-[6-Methyl-4-(4-trifluoromethyl-phenyl)-pyridin-2-yl]-pyrimidin-4-yl}-pyridin-2-ylamine]
230 °C (dec.) | Cc1cc(-c2ccc(C(F)(F)F)cc2)cc(-c2cccc(-c3cccc(S(=O)(=O)N4CCS(=O)(=O)CC4)c3)n2)n1 [Example 368, 6′-[3-(1,1-Dioxo-1λ6-thiomorpholine-4-sulfonyl)-phenyl]-6-methyl-4-(4-trifluoromethyl-phenyl)-[2,2′]bipyridinyl]
169 °C | CCc1cc(-c2ccc(C(F)(F)F)cc2)cc(-c2cccc(-c3cccc(S(=O)(=O)NC(C)(C)C)c3)c2)n1 [Example 265, 3′-[6-Ethyl-4-(4-trifluoromethyl-phenyl)-pyridin-2-yl]-biphenyl-3-sulfonic acid tert-butylamide]
191 °C | Cc1cc(-c2ccc(C(F)(F)F)cc2)cc(-c2cccc(-c3cccc(NS(=O)(=O)N4CCOCC4)c3)n2)n1 [Example 351, Morpholine-4-sulfonic acid {3-[6′-methyl-4′-(4-trifluoromethyl-phenyl)-[2,2′]bipyridinyl-6-yl]-phenyl}-amide]
297 °C | Cc1cc(-c2ccc(Cl)cc2)nc(-c2nc(-c3ccc(S(N)(=O)=O)cc3)no2)n1 [Example 136, 4-{5-[4-(4-Chloro-phenyl)-6-methyl-pyrimidin-2-yl]-[1,2,4]oxadiazol-3-yl}-benzenesulfonamide]
228 °C (dec.) | Cc1cc(-c2ccc(C(F)(F)F)cc2)nc(-c2ccnc(-c3ccc(S(N)(=O)=O)s3)c2)c1 [Example 323, 5-[4-Methyl-6-(4-trifluoromethyl-phenyl)-[2,4′]bipyridinyl-2′-yl]-thiophene-2-sulfonic acid amide]
248 to 252 °C | Cc1cc(-c2ccc(C(F)(F)F)cc2)cc(-c2cncc(-c3cnc(N)nc3)c2)n1 [Example 68, 5-[6-Methyl-4-(4-trifluoromethyl-phenyl)-[2,3′]bipyridinyl-5′-yl]-pyrimidin-2-ylamine]
153 °C | Cc1cc(-c2ccc(C(F)(F)F)c(C)c2)nc(-c2cccc(-c3ccc(N)nc3)c2)n1 [Example 132, 5-{3-[4-Methyl-6-(3-methyl-4-trifluoromethyl-phenyl)-pyrimidin-2-yl]-phenyl}-pyridin-2-ylamine]
262 °C | Nc1ccc(-c2cn(-c3nc(-c4cccc(C(F)(F)F)c4)cc(C(F)(F)F)n3)cn2)cn1 [Example 53, 5-{1-[4-Trifluoromethyl-6-(3-trifluoromethyl-phenyl)-pyrimidin-2-yl]-1H-imidazol-4-yl}-pyridin-2-ylamine]
206 to 208 °C | Cc1cc(-c2ccc(Cl)cc2)nc(-n2cnc(-c3ccc(N)nc3)c2)n1 [Example 43, 5-{1-[4-(4-Chloro-phenyl)-6-methyl-pyrimidin-2-yl]-1H-imidazol-4-yl}-pyridin-2-ylamine]
292 °C | NS(=O)(=O)c1ccc(-c2cn(-c3nc(-c4ccc(C(F)(F)F)cc4)cc(C(F)(F)F)n3)cn2)cc1 [Example 159, 4-{1-[4-Trifluoromethyl-6-(4-trifluoromethyl-phenyl)-pyrimidin-2-yl]-1H-imidazol-4-yl}-benzenesulfonamide]
196 °C | CC(C)(C)NS(=O)(=O)c1cccc(-c2cc(-c3cc(C(F)(F)F)cc(-c4ccc(C(F)(F)F)cc4)n3)ccn2)c1 [Example 285, N-tert-Butyl-3-[4-trifluoromethyl-6-(4-trifluoromethyl-phenyl)-[2,4′]bipyridinyl-2′-yl]-benzenesulfonamide]
188 °C | NS(=O)(=O)c1cccc(-c2cccc(-c3nc(-c4ccc(C(F)(F)F)c(OCC(F)(F)F)c4)cc(C(F)(F)F)n3)c2)c1 [Example 447, 3′-{4-[3-(2,2,2-Trifluoro-ethoxy)-4-trifluoromethyl-phenyl]-6-trifluoromethyl-pyrimidin-2-yl}-biphenyl-3-sulfonic acid amide]
220 °C | Nc1ccc(-c2cccc(-c3nc(-c4ccc(C(F)(F)F)c(OCC(F)(F)F)c4)cc(C(F)(F)F)n3)c2)cn1 [Example 133, 5-(3-{4-[3-(2,2,2-Trifluoro-ethoxy)-4-trifluoromethyl-phenyl]-6-trifluoromethyl-pyrimidin-2-yl}-phenyl)-pyridin-2-ylamine]
> 250 °C | Cc1cc(-c2ccc(C(F)(F)F)cc2)cc(-c2ccnc(-c3ccc(S(N)(=O)=O)s3)n2)n1 [Example 315, 5-{4-[6-Methyl-4-(4-trifluoromethyl-phenyl)-pyridin-2-yl]-pyrimidin-2-yl}-thiophene-2-sulfonic acid amide]
276 °C | Cc1cc(-c2cc(C(F)(F)F)nc(-n3cnc(-c4ccc(N)nc4)c3)n2)ccc1Cl [Example 104, 5-{1-[4-(4-Chloro-3-methyl-phenyl)-6-trifluoromethyl-pyrimidin-2-yl]-1H-imidazol-4-yl}-pyridin-2-ylamine]

melting point | SMILES
111.5 °C | O=S(=O)(c1cccc(-c2cccc(-c3nc(-c4ccc(C(F)(F)F)cc4)cc(C(F)(F)F)n3)c2)c1)N(CCO)CCO [Example 392, 3′-[4-Trifluoromethyl-6-(4-trifluoromethyl-phenyl)-pyrimidin-2-yl]-biphenyl-3-sulfonic acid bis-(2-hydroxy-ethyl)-amide]
228 °C | NS(=O)(=O)c1ccc(-c2cc(-c3nc(-c4ccc(C(F)(F)F)cc4F)cc(C(F)(F)F)n3)ccn2)s1 [Example 451, 5-{4-[4-(2-Fluoro-4-trifluoromethyl-phenyl)-6-trifluoromethyl-pyrimidin-2-yl]-pyridin-2-yl}-thiophene-2-sulfonic acid amide]
258 °C | NS(=O)(=O)c1cccc(-c2noc(-c3nc(-c4ccc(Cl)c(Cl)c4)cc(C(F)(F)F)n3)n2)c1 [Example 99, 3-{5-[4-(3,4-Dichloro-phenyl)-6-trifluoromethyl-pyrimidin-2-yl]-[1,2,4]oxadiazol-3-yl}-benzenesulfonamide]
148 °C | Cc1cc(-c2ccc(OC(F)(F)F)cc2)cc(-c2cccc(-c3cccc(S(=O)(=O)NC(C)(C)C)c3)n2)n1 [Example 436, N-tert-Butyl-3-[6′-methyl-4′-(4-trifluoromethoxy-phenyl)-[2,2′]bipyridinyl-6-yl]-benzenesulfonamide]
227.5 °C | Cc1cc(-c2ccc(C(F)(F)F)cc2)nc(-n2cc(-c3ccc(N)nc3)nc2C)n1 [Example 150, 5-{2-Methyl-1-[4-methyl-6-(4-trifluoromethyl-phenyl)-pyrimidin-2-yl]-1H-imidazol-4-yl}-pyridin-2-ylamine]
309 °C | Nc1ccc(-c2cn(-c3nc(-c4ccc(C(F)(F)F)c(F)c4)cc(C(F)(F)F)n3)cn2)cn1 [Example 94, 5-{1-[4-(3-Fluoro-4-trifluoromethyl-phenyl)-6-trifluoromethyl-pyrimidin-2-yl]-1H-imidazol-4-yl}-pyridin-2-ylamine]
156.5 °C | Nc1cccc(-c2cccc(-c3nc(-c4ccc(C(F)(F)F)cc4)cc(C(F)(F)F)n3)c2)c1 [Example 220, 3′-[4-Trifluoromethyl-6-(4-trifluoromethyl-phenyl)-pyrimidin-2-yl]-biphenyl-3-ylamine]
168 °C | Cc1cc(-c2ccc(C(F)(F)F)cc2)cc(-c2cccc(-c3cccc(S(=O)(=O)NCc4ccccc4)c3)n2)n1 [Example 431, N-Benzyl-3-[6′-methyl-4′-(4-trifluoromethyl-phenyl)-[2,2′]bipyridinyl-6-yl]-benzenesulfonamide]
203 °C | NS(=O)(=O)c1ccc(-c2cccc(-c3nc(-c4ccc(Cl)c(Cl)c4)cc(C(F)(F)F)n3)c2)s1 [Example 204, 5-{3-[4-(3,4-Dichloro-phenyl)-6-trifluoromethyl-pyrimidin-2-yl]-phenyl}-thiophene-2-sulfonic acid amide]
258.5 °C | NS(=O)(=O)c1ccc(-c2nc(-c3nc(-c4ccc(C(F)(F)F)cc4)cc(C(F)(F)F)n3)no2)s1 [Example 23, 5-{3-[4-Trifluoromethyl-6-(4-trifluoromethyl-phenyl)-pyrimidin-2-yl]-[1,2,4]oxadiazol-5-yl}-thiophene-2-sulfonic acid amide]
> 266 °C | NS(=O)(=O)c1cnc(-c2cn(-c3cc(C(F)(F)F)cc(-c4ccc(C(F)(F)F)cc4)n3)cn2)s1 [Example 284, 2-{1-[4-Trifluoromethyl-6-(4-trifluoromethyl-phenyl)-pyridin-2-yl]-1H-imidazol-4-yl}-thiazole-5-sulfonic acid amide]
180 °C | Cc1cc(-c2ccc(Cl)c(Cl)c2)cc(-c2ccc(N3C=CC=CC3N)s2)n1 (stereo not drawn) [Example 254, 1-{5-[4-(3,4-Dichloro-phenyl)-6-methyl-pyridin-2-yl]-thiophen-2-yl}-pyridin-2-ylamine]
277 °C | Cc1cc(-c2ccc(C(F)(F)F)cc2)nc(-n2cnc(-c3ccc(S(N)(=O)=O)s3)c2)n1 [Example 191, 5-{1-[4-Methyl-6-(4-trifluoromethyl-phenyl)-pyrimidin-2-yl]-1H-imidazol-4-yl}-thiophene-2-sulfonic acid amide]
205 °C | Cc1cc(-c2ccc(C(F)(F)F)cc2)cc(-c2cccc(-c3cccc(S(=O)(=O)N4CC(O)C4)c3)n2)n1 [Example 428, 1-{3-[6′-Methyl-4′-(4-trifluoromethyl-phenyl)-[2,2′]bipyridinyl-6-yl]-benzenesulfonyl}-azetidin-3-ol]
243 °C (dec.) | Cc1cc(-c2ccc(C(F)(F)F)cc2)cc(-c2cccc(-c3ccc(S(N)(=O)=O)s3)n2)n1 [Example 317, 5-[6′-Methyl-4′-(4-trifluoromethyl-phenyl)-[2,2′]bipyridinyl-6-yl]-thiophene-2-sulfonic acid amide]
158 °C | Cc1cc(-c2ccc(C(F)(F)F)cc2)cc(-c2cccc(-c3cccc(S(=O)(=O)N4CCC4)c3)n2)n1 [Example 426, 6′-[3-(Azetidine-1-sulfonyl)-phenyl]-6-methyl-4-(4-trifluoromethyl-phenyl)-[2,2′]bipyridinyl]

SMILES | melting point
Cc1cc(-c2ccc(C(F)(F)F)cc2)cc(-c2cccc(-c3csc(NS(=O)(=O)NC(=O)OC(C)(C)C)n3)c2)n1 [Example 344, N-(tert-Butoxycarbonyl)-N′-(4-{3-[6-methyl-4-(4-trifluoromethyl-phenyl)-pyridin-2-yl]-phenyl}-thiazol-2-yl)-sulfamide] | 152 °C (dec.)
